Reference: the CheMixHub viscosity set
Several values for one entry are separate records, joined by “and”; a condition that tells them apart may be missing. Equal values may be shown once.

Assay: xn = mol fraction of the nth substance listed

CC(=O)O + Cc1ccc(C)cc1
viscosity, 101 kPa
Conditions	x2 = 0.0592	x2 = 0.124	x2 = 0.1952	x2 = 0.2738	x2 = 0.3615	x2 = 0.4596	x2 = 0.569	x2 = 0.6934	x2 = 0.8354
303.15 K	0.8817 mPa·s and 0.882 mPa·s	0.7951 mPa·s and 0.795 mPa·s	0.7314 mPa·s and 0.731 mPa·s	0.6755 mPa·s and 0.676 mPa·s	0.6446 mPa·s and 0.645 mPa·s	0.6109 mPa·s and 0.611 mPa·s	0.5923 mPa·s and 0.592 mPa·s	0.58 mPa·s and 0.58 mPa·s	0.571 mPa·s and 0.571 mPa·s
308.15 K	0.8236 mPa·s	0.7455 mPa·s	0.685 mPa·s	0.6373 mPa·s	0.6095 mPa·s	0.5737 mPa·s	0.5606 mPa·s	0.5476 mPa·s	0.5393 mPa·s
313.15 K	0.7876 mPa·s	0.7172 mPa·s	0.6617 mPa·s	0.6171 mPa·s	0.5816 mPa·s	0.5522 mPa·s	–	0.5233 mPa·s	–
318.15 K	0.7347 mPa·s	0.6716 mPa·s	0.6249 mPa·s	0.5798 mPa·s	0.5483 mPa·s	0.5222 mPa·s	0.5018 mPa·s	0.4927 mPa·s	0.4862 mPa·s
323.15 K	0.6874 mPa·s and 0.687 mPa·s	0.6339 mPa·s and 0.634 mPa·s	0.5878 mPa·s and 0.588 mPa·s	0.5468 mPa·s and 0.547 mPa·s	0.5158 mPa·s and 0.516 mPa·s	0.4913 mPa·s and 0.491 mPa·s	0.4775 mPa·s and 0.478 mPa·s	0.4674 mPa·s and 0.467 mPa·s	0.4608 mPa·s and 0.461 mPa·s

ClCCl + Cc1ccc(C)cc1
101 kPa
Conditions	viscosity [mPa·s]
293.15 K, x1 = 0.2949	0.59
293.15 K, x1 = 0.4409	0.561
293.15 K, x1 = 0.5522	0.535
293.15 K, x1 = 0.609	0.522
293.15 K, x1 = 0.6936	0.504
293.15 K, x1 = 0.7459	0.492
293.15 K, x1 = 0.8125	0.476
293.15 K, x1 = 0.8558	0.468
298.15 K, x1 = 0.2347	0.568
298.15 K, x1 = 0.3846	0.541
298.15 K, x1 = 0.4518	0.529
298.15 K, x1 = 0.5662	0.504
298.15 K, x1 = 0.6375	0.488
298.15 K, x1 = 0.6972	0.476
298.15 K, x1 = 0.7342	0.467
298.15 K, x1 = 0.7892	0.457
298.15 K, x1 = 0.8376	0.451
303.15 K, x1 = 0.2286	0.539
303.15 K, x1 = 0.3627	0.515
303.15 K, x1 = 0.4362	0.502
303.15 K, x1 = 0.5371	0.483
303.15 K, x1 = 0.624	0.463
303.15 K, x1 = 0.6948	0.448
303.15 K, x1 = 0.7643	0.433
303.15 K, x1 = 0.818	0.427

CC(=O)O + Cc1cccc(C)c1
viscosity [mPa·s], 101.3 kPa
Conditions	x2 = 0.1087	x2 = 0.218	x2 = 0.2726	x2 = 0.3467	x2 = 0.4518	x2 = 0.5763	x2 = 0.6567	x2 = 0.7671	x2 = 0.8589
298.15 K	0.952	0.809	0.753	0.7	0.648	0.618	0.603	0.591	0.579
303.15 K	0.861	0.746	0.707	0.655	0.615	0.582	0.568	0.554	0.545
313.15 K	0.777	0.665	0.624	0.58	0.543	0.519	0.507	0.501	0.494
323.15 K	0.687	0.59	0.554	0.518	0.483	0.466	0.459	0.451	0.444
